Source: patent US11541029B2, “High penetration compositions and their applications” (Techfields Pharma Co., Ltd., priority 2008, dated 2023)
Values belong to the compound of their own block, whether it stands above or below them.

How the values were obtained:
[1] = system: Human colon cancer cells (LS174J); experiment: Human colon cancer xenograft in nude mice
Description: Human colon cancer cells (LS174J, 2-3 mm^3 of tumor tissue was used in each mouse) were subcutaneously xenografted into nude mice (BALB).

[2] = system: Human breast cancer cells (BCAP-37); experiment: Human breast cancer xenograft in nude mice
Method: Human breast cancer cells (BCAP-37, 2-3 mm^3 of tumor tissue was used in each mouse) were subcutaneously xenografted into nude mice (BALB, 12 groups, 7 mice each group). […] 50 μl of 5% (equal to 2.5 mg of the HPCs) diethylaminoethyl acetylsalicylate.HCl (P-1, in pure water); 1-piperidinepropyl 2[(2,6-dichlorophenyl)amino]benzene acetate.HCl (P-2, in water), 1-pyrrolidinepropyl 2-(3-benzoylphenyl) propionate.HCl (P-3, in water), 4-piperidinemethyl 2-(3-phenoxyphenyl)propionate.HCl (P-4, in water), 3-piperidinemethyl 2-(ρ-isobutylphenyl) propionate.HCl (P-5, in water), diethylaminoethyl 1-(p-chlorobenzoyl)-5-methoxy-2-methylindole 3-acetate.HCl (P-11, in water), 2-(4-morpholinyl)ethyl (Z)-5-fluoro-2-methyl-1-[(4-methylsulfinyl)phenylmethylene]-1H-indene-3-acetate.

[3] = Distribution in organs of rats killed with CO2 (absence of general circulation); details: 5 hrs after 0.3 mmol/kg diethylaminoethyl acetylsalicylate HCl salt on back of killed rats;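 also: tissue concentration in nmol/g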
Method: 0.3 mmol/kg of diethylaminoethyl acetylsalicylate HCl salt (10% in pure water) was applied to the back of rats (10 cm^2) which were killed with CO2. The rats were shaken for 5 hrs, then the HPCs and parent drugs in organs of rats were determined.

[4] = system: rats given sterilized E. coli suspension as a pyrogen; experiment: Antipyretic activity of aspirin and its HPC (Study B); format: in vivo
Method: […] Group A was the control group. The body temperature of rats was taken at 90 min. intervals before and after the administration of the test compounds.

[5] = system: type 2 diabetes rat models [SLAC/GK(Goto and Kakisaki)]; experiment: Hypoglycemic effects of aspirin and its HPC in GK rats, once per day for 6 weeks; format: in vivo; details: for Blood Glucose Levels at day 1 / Blood Glucose Levels at day 42: no fasting, n = 5;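 as to Blood Glucose Levels at day 42: blood glucose in mg/dL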
Method: The blood glucose levels were measured three times every week (no fasting) from the third week to the sixth week.

[6] = system: Human Gastric Cancer HGC-27 cell; experiment: HGC-27 cell proliferation, MTT assay; format: cell-based; details: 72 hours
Method: The inhibition of cellular proliferation was measured by the modified dimethyl thiazolyl diphenyl tetrazolium salt (MTT) [3-(4,5-dimethylthiazol-2-yl)-2,5-diphenyltetrazolium bromide] assay, based on the ability of live cells to converting thiazolyl blue to dark blue formazan. Approximately 3500 cells of HGC-27 (in 100 μl culture solution) were seeded into 96-well culture plates and were cultured for 16 hours at 37° C. Different concentration solution (100 μl) of Taxol (positive control), chlorambucil, or N,N-diethylaminoethyl 4-[bis(2-chloroethyl)amino]benzenebutyrate.HCl salt (HPC of chlorambucil) were added and incubation continued for 72 hours at 37° C. Then MTT were added and incubation continued at 37° C. for 4 h, and 100 μl DMSO was pipetted to solubilize the formazan product for 30 min at room temperature. The absorbency at 570 nm was measured using Bio-Rad micro-plate reader […].

[7] = about 50 μl of 5% topically every 12 hours
[8] = 50 μl of 5% topically every 8 hours

Weight of mice at day 30 ([1]; in vivo): 23 ± 2 | Weight of mice at day 42 ([2]; in vivo): 22 ± 3
SMILES: CC(C(=O)OCCCN1CCCC1)c1cccc(C(=O)c2ccccc2)c1.Cl (centres unmarked) [P-3, 1-pyrrolidinepropyl 2-(3-benzoylphenyl) propionate.HCl]
tumor Size at day 30 [1, 7]: 550 ± 190 mm^3 | tumor Size at day 42 [2, 8]: 210 ± 60 mm^3

Weight of mice at day 30 ([1]; in vivo): 22 ± 3 | Weight of mice at day 42 ([2]; in vivo): 23 ± 3
SMILES: CC(C(=O)OCC1CCNCC1)c1cccc(Oc2ccccc2)c1.Cl (centres unmarked) [P-4, 4-piperidinemethyl 2-(3-phenoxyphenyl)propionate.HCl]
tumor Size at day 30 [1, 7]: 550 ± 128 mm^3 | tumor Size at day 42 [2, 8]: 190 ± 55 mm^3

Weight of mice at day 30 ([1]; in vivo): 22 ± 2
SMILES: CCN(CC)CCOC(=O)c1ccccc1Nc1c(Cl)ccc(C)c1Cl.Cl [P-47, diethylaminoethyl 2-[(2,6-dichloro-3-methylphenyl)amino]benzoate.HCl]
tumor Size at day 30 [1, 7]: 590 ± 350 mm^3

Weight of mice at day 30 ([1]; in vivo): 23 ± 2
SMILES: Cl.Nc1c(CC(=O)OCCN2CCOCC2)cccc1C(=O)c1ccccc1 [P-16, 2-(4-morpholinyl)ethyl 2-amino-3-benzoylbenzeneacetate.HCl]
tumor Size at day 30 [1, 7]: 590 ± 350 mm^3

Weight of mice at day 30 ([1]; in vivo): 23 ± 3
SMILES: CCN(CC)CCOC(=O)c1ccccc1Nc1cccc(C)c1C.Cl [P-46, diethylaminoethyl 2-[(2,3-dimethylphenyl)amino]benzoate.HCl]
tumor Size at day 30 [1, 7]: 650 ± 250 mm^3

Further lines, the compound ahead of its results:

SMILES: CN(C)CCCC(=O)OC1=C(C(=O)Nc2nccs2)N(C)S(=O)(=O)c2ccccc21.Cl [P-52, N-(2-thiazoyl)-4-N,N-dimethylaminobutyryloxy-2-methyl-2H,1,2-benzothiazine-3-carboxamide 1,1-dioxide.HCl]
tumor Size at day 30 [1, 7]: 720 ± 280 mm^3 | Weight of mice at day 30 ([1]; in vivo): 23 ± 3

SMILES: Cl.O=C(Cc1ccccc1Nc1c(Cl)cccc1Cl)OCCCN1CCCCC1 [P-2, 1-piperidinepropyl 2[(2,6-dichlorophenyl)amino]benzene acetate.HCl]
Weight of mice at day 30 [1, 7]: 22 ± 2 | tumor Size at day 30 [1, 7]: 520 ± 170 mm^3 | tumor Size at day 42 [2, 8]: 160 ± 50 mm^3 | Weight of mice at day 42 ([2]; 50 μl of 5% topically every 8 hours, in g (unit assumed)): 23 ± 2

SMILES: CC(=O)Oc1ccccc1C(=O)O [aspirin, acetylsalicylic acid, reference compound]
concentration in Leg muscle [3]: 6.7 ± 2.1 nmol/g | concentration in kidney [3]: 3.5 ± 2.1 nmol/g | concentration in liver [3]: 2.1 ± 1.0 nmol/g | concentration in pancreas [3]: 4.1 ± 1.3 nmol/g | concentration in stomach [3]: 4.7 ± 2.5 nmol/g | body temperature ([4]; 20 mg/kg, orally, t = 0 min., in °C (unit assumed)): 37.5 ± 0.2 | body temperature ([4]; 20 mg/kg, orally, t = 90 min., in °C (unit assumed)): 37.7 ± 0.3 | body temperature ([4]; 20 mg/kg, orally, t = 180 min., in °C (unit assumed)): 37.4 ± 0.3 | body temperature ([4]; 20 mg/kg, orally, t = 270 min., in °C (unit assumed)): 37.4 ± 0.4 | body temperature ([4]; 50 mg/kg, orally, t = 0 min., in °C (unit assumed)): 37.5 ± 0.3 | body temperature ([4]; 50 mg/kg, orally, t = 90 min., in °C (unit assumed)): 37.7 ± 0.3 | body temperature ([4]; 50 mg/kg, orally, t = 180 min., in °C (unit assumed)): 37.1 ± 0.3 | body temperature ([4]; 50 mg/kg, orally, t = 270 min., in °C (unit assumed)): 37.0 ± 0.4 | body temperature ([4]; 100 mg/kg, orally, t = 0 min., in °C (unit assumed)): 37.5 ± 0.2 | body temperature ([4]; 100 mg/kg, orally, t = 90 min., in °C (unit assumed)): 37.3 ± 0.4 | body temperature ([4]; 100 mg/kg, orally, t = 180 min., in °C (unit assumed)): 36.7 ± 0.3 | body temperature ([4]; 100 mg/kg, orally, t = 270 min., in °C (unit assumed)): 36.8 ± 0.4 | body temperature ([4]; groups H/I, 50 mg/kg, transdermally, t = 0 min., in °C (unit assumed)): 37.6 ± 0.3 | body temperature ([4]; groups H/I, 50 mg/kg, transdermally, t = 90 min., in °C (unit assumed)): 37.9 ± 0.3 | body temperature ([4]; groups H/I, 50 mg/kg, transdermally, t = 180 min., in °C (unit assumed)): 37.8 ± 0.4 | body temperature ([4]; groups H/I, 50 mg/kg, transdermally, t = 270 min., in °C (unit assumed)): 37.7 ± 0.5 | body temperature ([4]; groups J/K, 20 mg/kg, transdermally, t = 0 min., in °C (unit assumed)): 37.6 ± 0.3 | body temperature ([4]; groups J/K, 20 mg/kg, transdermally, t = 90 min., in °C (unit assumed)): 37.8 ± 0.4 | body temperature ([4]; groups J/K, 20 mg/kg, transdermally, t = 180 min., in °C (unit assumed)): 37.7 ± 0.4 | body temperature ([4]; groups J/K, 20 mg/kg, transdermally, t = 270 min., in °C (unit assumed)): 38.0 ± 0.3 | body temperature ([4]; groups L/M, 20 mg/kg, transdermally, t = 0 min.): 37.5 ± 0.3 | body temperature ([4]; groups L/M, 20 mg/kg, transdermally, t = 90 min., in °C (unit assumed)): 37.6 ± 0.5 | body temperature ([4]; groups L/M, 20 mg/kg, transdermally, t = 180 min., in °C (unit assumed)): 37.8 ± 0.3 | body temperature ([4]; groups L/M, 20 mg/kg, transdermally, t = 270 min., in °C (unit assumed)): 37.9 ± 0.3 | antipyretic activity ([4]; transdermal administration): did not show any antipyretic activity | Blood Glucose Levels at day 1 ([5]; 50 mg/kg, orally): 213.7 ± 20.5 mg/dL | Blood Glucose Levels at day 42 ([5]; 50 mg/kg, orally): 243.4 ± 26.7 mg/dL | Blood Glucose Levels at day 1 ([5]; 50 mg/kg, transdermally): 216.6 ± 17.3 mg/dL | Blood Glucose Levels at day 42 ([5]; 50 mg/kg, transdermally): 258.2 ± 17.4 mg/dL | Blood Glucose Levels at day 1 ([5]; 100 mg/kg, orally): 211.3 ± 21.5 mg/dL | Blood Glucose Levels at day 42 ([5]; 100 mg/kg, orally): 219.4 ± 19.9 mg/dL | Blood Glucose Levels at day 1 ([5]; 100 mg/kg, transdermally): 217.4 ± 18.9 mg/dL | Blood Glucose Levels at day 42 ([5]; 100 mg/kg, transdermally): 255.4 ± 24.6 mg/dL | Blood Glucose Levels at day 1 ([5]; 200 mg/kg, orally): 213.5 ± 21.5 mg/dL | Blood Glucose Levels at day 42 ([5]; 200 mg/kg, orally): 195.4 ± 23.4 mg/dL | Blood Glucose Levels at day 1 ([5]; 200 mg/kg, transdermally): 216.4 ± 21.9 mg/dL | Blood Glucose Levels at day 42 ([5]; 200 mg/kg, transdermally): 247.4 ± 27.8 mg/dL | Blood Glucose Levels at day 1 ([5]; 300 mg/kg, orally): 215.6 ± 22.4 mg/dL | Blood Glucose Levels at day 42 ([5]; 300 mg/kg, orally): 165.4 ± 22.1 mg/dL | anti-diabetic effect ([5]; transdermal administration): did not show any anti-diabetic effect

SMILES: CCN(CC)CCOC(=O)CCCc1ccc(N(CCCl)CCCl)cc1.Cl [HPC of chlorambucil, N,N-diethylaminoethyl 4-[bis(2-chloroethyl)amino]benzenebutyrate.HCl salt]
HGC-27 cell growth inhibition rate ([6]; 0.5 μM): 15.6% | HGC-27 cell growth inhibition rate ([6]; 2.0 μM): 28.7% | HGC-27 cell growth inhibition rate ([6]; 5.0 μM): 42.1% | HGC-27 cell growth inhibition rate ([6]; 25 μM): 61.6% | HGC-27 cell growth inhibition rate ([6]; 50 μM): 82.1% | HGC-27 cell growth inhibition rate ([6]; 75 μM): 96.5% | HGC-27 cell growth inhibition rate ([6]; 100 μM): 98.1% | HGC-27 cell growth inhibition rate ([6]; 200 μM): 97.2% | HGC-27 cell growth inhibition rate ([6]; 500 μM): 98.2%
